Legend:
[1] = Lipophilicity, log D of the compound at pH 7.4 by shake flask method; assay type: physicochemical; details: buffer
[2] = Intrinsic clearance in human microsomes assessed per mg protein; assay type: ADME, Microsome; details: read-out: CLH
[3] = Apparent permeability from apical to basolateral side in human Caco2 cells; assay type: ADME, cell-based; details: Caco-2

Compound | logD [1] | microsomal CLint [2] | Papp A→B [3]
CN(C)[C@H]1CC[C@H](Nc2ncnc3cc[nH]c23)CC1 | -0.3 | < 3 µL/min/mg | –
Cn1ccc2ncnc(N[C@H]3CC[C@H](N(C)C)CC3)c21 | -0.8 | – | –
CN(C)[C@H]1CC[C@H](Nc2ncnc3cscc23)CC1 | 0.3 | 39 µL/min/mg | –
CN(C)[C@H]1CC[C@H](Nc2ncnc3ccoc23)CC1 | -0.7 | – | –

Now from value to molecule:

logD [1] | microsomal CLint [2] | Papp A→B [3] | Compound
0.2 | – | 360 nm/s | Cc1ccn2ncnc(N[C@H]3CC[C@H](N(C)C)CC3)c12
-0.2 | – | – | CN(C)[C@H]1CC[C@H](Nc2ncnc3ccsc23)CC1
-0.6 | – | – | CN(C)[C@H]1CC[C@H](Nc2ncnc3ccn(C4CCOCC4)c23)CC1
0 | < 3 µL/min/mg | – | CN(C)[C@H]1CC[C@H](Nc2ncnn3cccc23)CC1
